We go through one compound from patent US8771975B2, “Quantitation of GCP activity in biological samples” (The Johns Hopkins University, priority 2011, dated 2014).

Series [1] has as its system GCP. As to the kind of experiment: GCP activity in rat sciatic nerve after peripheral (i.p.) administration. Format: in vivo. The following applies: 1 hour after administration. The text has this: Sciatic nerve is the target tissue for GCP inhibitors in clinical trials for peripheral neuropathy and neuropathic pain. To obtain sciatic nerve samples, 1-2 cm incisions were made to the skin on top of the rat's mid-thigh so that sciatic nerve, gluteus superficialis muscle and biceps femoris muscle were exposed. The three were then separated and 5 mm of sciatic nerve was removed and analyzed as described above for the human skin and rat paw pad samples. GCP activity in sciatic nerve preparations from animals treated with 1, 10 and 100 mg/kg 2-PMPA was reduced to 92±11, 35±6 and 10±4% respectively compared to activity in sciatic nerve isolated from control animals (FIG. 3). Albeit to a different extent, GCP inhibition in sciatic nerve is attained at similar 2-PMPA doses (10 and 100 mg/kg i.p.) as in footpad tissue.

Series [2] has as its system GCP. Nature of the series: GCP enzyme activity assay with human skin biopsy pellet ([3H]-NAAG cleavage). Format: biochemical. The following applies: 2-PMPA 1 μM added to assay mixture; [3H]-NAAG 70 nM, 37° C. The protocol: Punch skin biopsies (3 mm) were obtained from the distal thigh of healthy human volunteers after anesthesia with 0.5 cc 2% lidocaine subcutaneous injection. Samples were placed in cold Tris buffer (pH 7.4) and GCP enzymatic activity was carried out within 1 hour of collection. The skin were homogenized, the homogenate was centrifuged and the pellet was used as source of GCP in the enzyme activity assay. Briefly, human skin biopsies were sonicated in Tris buffer (pH 7.4, 40 mM, 0.5 mL) for 1 minute in ice. The mixture was centrifuged for 2 minutes at 16000×g; the supernantant (containing endogenous […]) was removed and the resulting pellet (containing GCP) was reconstituted in 70 μL assay buffer (Tris pH 7.4, 40 mM containing 1 mM CoCl2) and used as source of GCP in the activity assay. Reconstituted pellet was then incubated with [^3H] […] The radioactivity in each vial corresponding to [^3H]-glutamate was determined via a Beckman LS-6000IC scintillation counter. Radioactivity values in dpm were converted to fmoles of glutamate using the relation 1 pCi/2.2 dpm and the specific activity of [^3H]-glutamate (same as that of [^3H]-NAAG: 1 fmole/50 pCi). As a result, if 16711 dpm [^3H]-glutamate were measured after incubating 10 mg tissue for 1 h, the normalized activity would be: 16711 dpm×(1 pCi/2.2 dpm)×(1 fmole/50 pCi)/10 mg tissue=15 fmole/h/mg tissue. […]

Series [3] has as its target T1, GCP (Rattus norvegicus, UniProt P70627).
T1 construct: Reconstituted pellet preparations from rat paw pads were used as source of GCP II; from tissue; host or cells: male Wistar rat paw pad skin (plantar hindpaw), 16000xg pellet; animals dosed i.p. with 2-PMPA
Format: in vivo. The following applies: 1 hour after administration. On the procedure:
A determination of GCP activity was carried out using male Wistar rat paw pads. Skin was collected from the planter hindpaw by 3 mm skin biopsy dissection and sonicated for 2 minutes in ice. The mixture was centrifuged for 2 minutes at 16000×g and the resulting pellet was reconstituted similar to the pellets obtained from the human skin dissections. Reconstituted pellet preparations from rat paw pads were used as source of GCP II and incubated with [^3H] NAAG, as described above for the human skin samples.
In order to determine if GCP activity in skin in vivo could be inhibited by peripheral administration of 2-PMPA, rats were administered vehicle (HEPES saline, pH 7, 50 mM) or 2-PMPA (1, 10 and 100 mg/kg, i.p.) using a dosing volume of 2 mL/kg. There were 10 animals in each group. Animals were sacrificed 1 hour after 2-PMPA or vehicle administration. […]

The nature of series [4]: 2-PMPA level in paw pads by LC-MS/MS. Format: in vivo, rat. The following applies: 100 mg/kg i.p., 1 hour after administration, n=9, LC-MS/MS. The protocol:
The presence of 2-PMPA in skin was determined. Animals were given 2-PMPA (100 mg/kg, i.p.), sacrificed 1 hour after compound administration and paw pads isolated for direct determination of 2-PMPA levels by LC-MS/MS. Since 2-PMPA detection by mass spectrometry has low sensitivity due to ion suppression, samples from animals that had received 100 mg/kg 2-PMPA rather than 10 mg/kg were analyzed to increase the probability of detecting 2-PMPA.
Briefly, frozen samples were thawed in a water bath at ambient temperature and subjected to a liquid extraction using MeOH. Samples were placed in brown glass vials containing 500 μL of 100% MeOH. […] The sample was transferred to a 250 μL polypropylene auto sampler vial sealed with a Teflon crimp cap, and a volume of 50 μL was injected onto the HPLC instrument for quantitative analysis using a temperature-controlled auto sampling device operating at 10° C.
Chromatographic analysis was performed using a Waters ACQUITY UPLC (Milford, Mass., USA). […] The column effluent was monitored using an AB SCIEX TRIPLE QUAD 5500 triple-quadrupole mass-spectrometric detector (Applied Biosystems, Foster City, Calif., USA). […] The daughter ions for 2-PMPA (m/z 191.1) and the internal standard (m/z 255.1) were monitored through the third quadrupole (Q3). […]

Where two headings read alike, the source gives them in different places.

T1 sequence (P70627 whole entry): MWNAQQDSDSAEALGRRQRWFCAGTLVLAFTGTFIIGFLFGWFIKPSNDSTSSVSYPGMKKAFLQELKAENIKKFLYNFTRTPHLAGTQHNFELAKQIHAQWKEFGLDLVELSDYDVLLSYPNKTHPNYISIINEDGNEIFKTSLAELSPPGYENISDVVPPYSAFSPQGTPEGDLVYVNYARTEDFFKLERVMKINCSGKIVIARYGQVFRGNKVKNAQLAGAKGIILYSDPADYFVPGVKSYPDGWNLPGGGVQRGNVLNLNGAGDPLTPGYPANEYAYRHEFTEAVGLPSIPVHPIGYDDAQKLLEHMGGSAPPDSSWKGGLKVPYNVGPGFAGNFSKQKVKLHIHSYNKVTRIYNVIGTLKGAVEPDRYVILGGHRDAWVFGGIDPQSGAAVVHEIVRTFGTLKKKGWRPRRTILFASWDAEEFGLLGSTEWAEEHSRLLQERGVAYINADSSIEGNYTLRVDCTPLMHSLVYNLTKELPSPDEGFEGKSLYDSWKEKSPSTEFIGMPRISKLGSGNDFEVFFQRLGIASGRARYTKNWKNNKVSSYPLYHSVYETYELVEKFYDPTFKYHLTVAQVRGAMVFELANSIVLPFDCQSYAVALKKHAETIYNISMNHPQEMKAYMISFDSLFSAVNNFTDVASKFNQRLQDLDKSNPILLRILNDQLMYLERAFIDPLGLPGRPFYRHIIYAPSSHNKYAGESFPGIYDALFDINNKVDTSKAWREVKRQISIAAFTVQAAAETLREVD

For `O=C(O)CCC(CP(=O)(O)O)C(=O)O` (stereo not shown) [2-PMPA], the “GCP activity in sciatic nerve preparations compared to control animals” value in series [1] (1 mg/kg i.p.) is listed as 92±11%; in series [1] (10 mg/kg i.p.) it was 35±6%; in series [1] (100 mg/kg i.p.), 10±4%. Besides, the “inhibition of GCP activity in human skin pellet preparations” value in series [2] stood at 90%. Moreover, the “GCP activity in paw pads compared to control animals” value was 60±11% in series [3] (10 mg/kg i.p.) and 47±11% in series [3] (100 mg/kg i.p.). Moreover, in series [4], the “2-PMPA concentration in paw pads” value is reported as 38±5 μg/g tissue.
